Assay results published in patent publication US20240165113A1, “METHODS OF TREATMENT FOR LEUKEMIA” (DNA SEQ 2, Inc., priority 2021, published 2024).
Read-outs that look alike come from different tables or passages of the source.

Target: T1, unphosphorylated ABL1(T315I)(229-499) (Homo sapiens, UniProt P00519, T315I)
T1 construct: The recombinant ABL1(T315I) (isoform 1a) residues 229-499 protein was designed with an N-terminal 10×His tag; made in house; host or cells: E. coli (co-expressed with YopH phosphatase and pGro7 chaperone)
T1 sequence (P00519 229-499 T315I): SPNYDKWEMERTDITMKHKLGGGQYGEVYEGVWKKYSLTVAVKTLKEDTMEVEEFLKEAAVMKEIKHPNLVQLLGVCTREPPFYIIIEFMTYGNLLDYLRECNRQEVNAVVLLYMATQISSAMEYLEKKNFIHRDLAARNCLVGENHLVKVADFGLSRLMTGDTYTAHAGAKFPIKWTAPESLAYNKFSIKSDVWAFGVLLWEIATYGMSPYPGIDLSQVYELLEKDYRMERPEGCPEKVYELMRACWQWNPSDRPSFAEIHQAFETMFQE
Experiment: SPR binding to unphosphorylated ABL1(T315I)(229-499)
Details: Ni-NTA capture of 10xHis-tag

**Q.** `Nc1nc(N)c(N=O)c(OCC2CCCCC2)n1` [A-0001, 6-Cyclohexylmethyloxy-5-nitroso-pyrimidine-2,4-diamine] was tested. Which Kd (HBST buffer, read-out: Unphosphorylated ABL1(T315I)(229-499) in HBST buffer KD) did it give?
**A.** 2 µM

**Q.** What about the Kd (PBST buffer, read-out: Unphosphorylated ABL1(T315I)(229-499) in PBST buffer KD) of the same compound?
**A.** 5 µM
